Measurements as given in US10927389B2, “Method of producing chemical substance by continuous fermentation” (Toray Industries, Inc., priority 2014, dated 2021).

How the values were obtained:
[1] = test system: Arxula adeninivorans NBRC 10858 strain; assay: Acetone resistance test; format: cell-based; details: strain NBRC 10858; 4% (v/v) acetone in YPAD medium, 30° C., 40 hours; absorbance at 600 nm with acetone ÷ without ×100
Protocol: (§1) To 5 ml of YPAD medium, 200 μL of acetone was added so that the final concentration became 4% (v/v). […] Absorbance at 600 nm of YPAD medium (with acetone)÷absorbance at 600 nm of YPAD medium×100 (7)

[2] = test system: Candida boidinii BCRC 22528 strain; assay: Acetone resistance test; format: cell-based; details: strain BCRC 22528; 4% (v/v) acetone in YPAD medium, 30° C., 40 hours; absorbance at 600 nm with acetone ÷ without ×100
Protocol: as §1

[3] = test system: Candida methanosorbosa BCRC 21489 strain; assay: Acetone resistance test; format: cell-based; details: strain BCRC 21489; 4% (v/v) acetone in YPAD medium, 30° C., 40 hours; absorbance at 600 nm with acetone ÷ without ×100
Protocol: as §1

[4] = test system: Candida pignaliae NBRC 10307 strain; assay: Acetone resistance test; format: cell-based; details: strain NBRC 10307; 4% (v/v) acetone in YPAD medium, 30° C., 40 hours; absorbance at 600 nm with acetone ÷ without ×100
Protocol: as §1

[5] = test system: Candida tropicalis NBRC 199 strain; assay: Acetone resistance test; format: cell-based; details: strain NBRC 199; 4% (v/v) acetone in YPAD medium, 30° C., 40 hours; absorbance at 600 nm with acetone ÷ without ×100
Protocol: as §1

[6] = test system: Kluyveromyces marxianus NBRC 272 strain; assay: Acetone resistance test; format: cell-based; details: strain NBRC 272; 4% (v/v) acetone in YPAD medium, 30° C., 40 hours; absorbance at 600 nm with acetone ÷ without ×100
Protocol: as §1

[7] = test system: Lindnera fabianii NBRC 1253 strain; assay: Acetone resistance test; format: cell-based; details: strain NBRC 1253; 4% (v/v) acetone in YPAD medium, 30° C., 40 hours; absorbance at 600 nm with acetone ÷ without ×100
Protocol: as §1

[8] = test system: Pichia stipitis BCRC 21777 strain; assay: Acetone resistance test; format: cell-based; details: strain BCRC 21777; 4% (v/v) acetone in YPAD medium, 30° C., 40 hours; absorbance at 600 nm with acetone ÷ without ×100
Protocol: as §1

[9] = test system: Saccharomyces cerevisiae NBRC 10505 strain; assay: Acetone resistance test; format: cell-based; details: strain NBRC 10505; 4% (v/v) acetone in YPAD medium, 30° C., 40 hours; absorbance at 600 nm with acetone ÷ without ×100
Protocol: as §1

[10] = test system: Saccharomyces cerevisiae NBRC 10505/ΔPDC1::LDH strain; assay: Acetone resistance test; format: cell-based; details: strain NBRC 10505 ΔPDC1::LDH; 4% (v/v) acetone in YPAD medium, 30° C., 40 hours; absorbance at 600 nm with acetone ÷ without ×100
Protocol: as §1

[11] = test system: Saccharomyces cerevisiae NBRC 2260 strain; assay: Acetone resistance test; format: cell-based; details: strain NBRC 2260; 4% (v/v) acetone in YPAD medium, 30° C., 40 hours; absorbance at 600 nm with acetone ÷ without ×100
Protocol: as §1

[12] = test system: Saccharomyces cerevisiae NBRC 2260/ΔPDC1::LDH strain; assay: Acetone resistance test; format: cell-based; details: strain NBRC 2260 ΔPDC1::LDH; 4% (v/v) acetone in YPAD medium, 30° C., 40 hours; absorbance at 600 nm with acetone ÷ without ×100
Protocol: as §1

[13] = test system: Saccharomyces cerevisiae NITE BP-1087 strain; assay: Acetone resistance test; format: cell-based; details: strain BP-1087; 4% (v/v) acetone in YPAD medium, 30° C., 40 hours; absorbance at 600 nm with acetone ÷ without ×100
Protocol: as §1

[14] = test system: Saccharomyces cerevisiae NITE BP-1088 strain; assay: Acetone resistance test; format: cell-based; details: strain BP-1088; 4% (v/v) acetone in YPAD medium, 30° C., 40 hours; absorbance at 600 nm with acetone ÷ without ×100
Protocol: as §1

[15] = test system: Saccharomyces cerevisiae NITE BP-1089 strain; assay: Acetone resistance test; format: cell-based; details: strain BP-1089; 4% (v/v) acetone in YPAD medium, 30° C., 40 hours; absorbance at 600 nm with acetone ÷ without ×100
Protocol: as §1

[16] = test system: Pichia mexicana NBRC 10320 strain; assay: Acetone resistance test; format: cell-based; details: strain NBRC 10320; 4% (v/v) acetone in YPAD medium, 30° C., 40 hours; absorbance at 600 nm with acetone ÷ without ×100
Protocol: as §1
As a result, the Pichia mexicana NBRC 10320 strain was found not to be a vanillin-resistant yeast, but found to be an acetone-resistant yeast.

[17] = test system: Saccharomyces cerevisiae NBRC 10505 strain; assay: Vanillin resistance test; format: cell-based; details: strain NBRC 10505; vanillin 1 g/L in YPAD medium, 30° C., 40 hours; absorbance at 600 nm with vanillin ÷ without ×100
Protocol: (§2) The Saccharomyces cerevisiae NBRC 10505 strain was inoculated using a platinum loop to 20-ml test tubes each containing 5 ml of YPAD medium, and then cultured with shaking at 30° C. overnight (preculture). The YPAD medium had the following composition: 1% (w/v) yeast extract, 2% (w/v) bactopeptone, 2% (w/v) glucose, and 0.04% (w/v) adenine. A vanillin concentrate (200 g/L in DMSO) was prepared, and 25 μL of the vanillin concentrate was added to 5 ml of YPAD medium so that the final concentration became 1 g/L. To provide vanillin-free YPAD medium, 25 μl of DMSO alone was added to YPAD medium. The preculture liquid was inoculated to the YPAD medium (with vanillin) and the vanillin-free YPAD medium such that OD became 0.2, and culture was performed at 30° C. for 40 hours. After the culture, OD 600 nm of the culture liquid of each strain was measured, and a value was calculated according to Equation (6). Absorbance at 600 nm of YPAD medium (with vanillin)÷absorbance at 600 nm of YPAD medium×100 (6).

[18] = test system: Candida pignaliae NBRC 10307 strain; assay: Vanillin resistance test; format: cell-based; details: strain NBRC 10307; vanillin 1 g/L in YPAD medium, 30° C., 40 hours; absorbance at 600 nm with vanillin ÷ without ×100
Protocol: (§3) The YPAD medium had the following composition: 1% (w/v) yeast extract, 2% (w/v) bactopeptone, 2% (w/v) glucose, and 0.04% (w/v) adenine. A vanillin concentrate (200 g/L in DMSO) was prepared, and 25 μL of the vanillin concentrate was added to 5 ml of YPAD medium so that the final concentration became 1 g/L. To provide vanillin-free YPAD medium, 25 μl of DMSO alone was added to YPAD medium. The preculture liquid was inoculated to the YPAD medium (with vanillin) and the vanillin-free YPAD medium such that OD became 0.2, and culture was performed at 30° C. for 40 hours. After the culture, OD 600 nm of the culture liquid of each strain was measured, and a value was calculated according to Equation (6). Absorbance at 600 nm of YPAD medium (with vanillin)÷absorbance at 600 nm of YPAD medium×100 (6).

[19] = test system: Pichia mexicana NBRC 10320 strain; assay: Vanillin resistance test; format: cell-based; details: strain NBRC 10320; vanillin 1 g/L in YPAD medium, 30° C., 40 hours; absorbance at 600 nm with vanillin ÷ without ×100
Protocol: The Pichia mexicana NBRC 10320 strain was tested by the same method as in Reference Example 5, and values were calculated according to Equation (6) and Equation (7) (Table 1).

[20] = test system: Saccharomyces cerevisiae NBRC 2260 strain; assay: Vanillin resistance test; format: cell-based; details: strain NBRC 2260; vanillin 1 g/L in YPAD medium, 30° C., 40 hours; absorbance at 600 nm with vanillin ÷ without ×100
Protocol: as §2

[21] = test system: Kluyveromyces marxianus NBRC 272 strain; assay: Vanillin resistance test; format: cell-based; details: strain NBRC 272; vanillin 1 g/L in YPAD medium, 30° C., 40 hours; absorbance at 600 nm with vanillin ÷ without ×100
Protocol: as §3
The Kluyveromyces marxianus NBRC 272 strain was tested by the same method as in Reference Example 5, and values were calculated according to Equation (6) and Equation (7) (Table 1).

[22] = test system: Candida tropicalis NBRC 199 strain; assay: Vanillin resistance test; format: cell-based; details: strain NBRC 199; vanillin 1 g/L in YPAD medium, 30° C., 40 hours; absorbance at 600 nm with vanillin ÷ without ×100
[23] = test system: Arxula adeninivorans NBRC 10858 strain; assay: Vanillin resistance test; format: cell-based; details: strain NBRC 10858; vanillin 1 g/L in YPAD medium, 30° C., 40 hours; absorbance at 600 nm with vanillin ÷ without ×100
Protocol: as §2
The Arxula adeninivorans NBRC 10858 strain was tested by the same method as in Reference Example 5, and values were calculated according to Equation (6) and Equation (7) (Table 1).

[24] = test system: Lindnera fabianii NBRC 1253 strain; assay: Vanillin resistance test; format: cell-based; details: strain NBRC 1253; vanillin 1 g/L in YPAD medium, 30° C., 40 hours; absorbance at 600 nm with vanillin ÷ without ×100
Protocol: The Lindnera fabianii NBRC 1253 strain was tested by the same method as in Reference Example 5, and a value was calculated according to Equation (6) and Equation (7) (Table 1).

[25] = test system: Candida methanosorbosa BCRC 21489 strain; assay: Vanillin resistance test; format: cell-based; details: strain BCRC 21489; vanillin 1 g/L in YPAD medium, 30° C., 40 hours; absorbance at 600 nm with vanillin ÷ without ×100
Protocol: The Candida methanosorbosa BCRC 21489 strain was tested by the same method as in Reference Example 5, and values were calculated according to Equation (6) and Equation (7) (Table 1).

[26] = test system: Pichia stipitis BCRC 21777 strain; assay: Vanillin resistance test; format: cell-based; details: strain BCRC 21777; vanillin 1 g/L in YPAD medium, 30° C., 40 hours; absorbance at 600 nm with vanillin ÷ without ×100
Protocol: as §3
The Pichia stipitis BCRC 21777 strain was tested by the same method as in Reference Example 5, and values were calculated according to Equation (6) and Equation (7) (Table 1).

[27] = test system: Candida boidinii BCRC 22528 strain; assay: Vanillin resistance test; format: cell-based; details: strain BCRC 22528; vanillin 1 g/L in YPAD medium, 30° C., 40 hours; absorbance at 600 nm with vanillin ÷ without ×100
Protocol: The Candida boidinii BCRC 22528 strain was tested by the same method as in Reference Example 5, and values were calculated according to Equation (6) and Equation (7) (Table 1).

[28] = test system: Saccharomyces cerevisiae NITE BP-1087 strain; assay: Vanillin resistance test; format: cell-based; details: strain BP-1087; vanillin 1 g/L in YPAD medium, 30° C., 40 hours; absorbance at 600 nm with vanillin ÷ without ×100
Protocol: as §2

[29] = test system: Saccharomyces cerevisiae NITE BP-1088 strain; assay: Vanillin resistance test; format: cell-based; details: strain BP-1088; vanillin 1 g/L in YPAD medium, 30° C., 40 hours; absorbance at 600 nm with vanillin ÷ without ×100
Protocol: as §2

[30] = test system: Saccharomyces cerevisiae NITE BP-1089 strain; assay: Vanillin resistance test; format: cell-based; details: strain BP-1089; vanillin 1 g/L in YPAD medium, 30° C., 40 hours; absorbance at 600 nm with vanillin ÷ without ×100
Protocol: as §2

[31] = test system: Saccharomyces cerevisiae NBRC 10505/ΔPDC1::LDH strain; details: strain NBRC 10505 ΔPDC1::LDH; vanillin 1 g/L in YPAD medium, 30° C., 40 hours; absorbance at 600 nm with vanillin ÷ without ×100
Protocol: as §2

[32] = test system: Saccharomyces cerevisiae NBRC 2260/ΔPDC1::LDH strain; details: strain NBRC 2260 ΔPDC1::LDH; vanillin 1 g/L in YPAD medium, 30° C., 40 hours; absorbance at 600 nm with vanillin ÷ without ×100
Protocol: as §2

SMILES: CC(C)=O [Acetone, acetone]
- Acetone resistance test result [1]: 22
- Acetone resistance test result [2]: 49
- Acetone resistance test result [3]: 74
- Acetone resistance test result [4]: 1.3
- Acetone resistance test result [5]: 100
- Acetone resistance test result [6]: 87
- Acetone resistance test result [7]: 111
- Acetone resistance test result [8]: 1.8
- Acetone resistance test result [9]: 8.8
- Acetone resistance test result [10]: 8
- Acetone resistance test result [11]: 86
- Acetone resistance test result [12]: 84
- Acetone resistance test result [13]: 10
- Acetone resistance test result [14]: 7.5
- Acetone resistance test result [15]: 7.2
- Acetone resistance test result [16]: 100

SMILES: COc1cc(C=O)ccc1O [Vanillin, vanillin]
- Vanillin resistance test result [17]: 6.8
- Vanillin resistance test result [18]: 1.9
- Vanillin resistance test result [19]: 11
- Vanillin resistance test result [20]: 83
- Vanillin resistance test result [21]: 100
- Vanillin resistance test result [22]: 82
- Vanillin resistance test result [23]: 84
- Vanillin resistance test result [24]: 95
- Vanillin resistance test result [25]: 54
- Vanillin resistance test result [26]: 22
- Vanillin resistance test result [27]: 66
- Vanillin resistance test result [28]: 9.2
- Vanillin resistance test result [29]: 8.5
- Vanillin resistance test result [30]: 7.8
- Vanillin resistance test result [31]: 6.2
- Vanillin resistance test result [32]: 82
